Reference: patent US11242555B2, “Molecular sensors and uses thereof” (New York University, priority 2018, dated 2022)
Where a name gives a salt, the structure may show the parent alone.

The molecules below were run on flexible molecular sensor (DNA) (assay: Flexible (tongs-shaped) molecular sensor in solution, groove binders and polypeptides (FRET ratio)). Details: flexible sensor in solution.
Assay type: binding

Molecule | FRET ratio as a function of compound concentration
N=C(N)c1ccc(-c2ccc(-c3ccc(C(=N)N)cc3)o2)cc1 [Fourmadine] | concentration-dependent increase of the FRET ratio
Cn1cc(NC(=O)c2cc(NC(=O)CN=C(N)N)cn2C)cc1C(=O)NCCC(=N)N [Netrospin] | concentration-dependent increase of the FRET ratio
N=C(N)c1ccc(OCCCCCOc2ccc(C(=N)N)cc2)cc1 [Pentamidine] | concentration-dependent increase of the FRET ratio
Tri-lysine [Ly-3] | increase the FRET ratio

Same assay, conditions: flexible sensor, 20 mM MgCl added to solution

Molecule | FRET ratio as a function of drug concentration, with Mg
COC1C(O)CC(OC2CC(Oc3cc4cc5c(c(O)c4c(O)c3C)C(=O)[C@@H](OC3CC(OC4CC(OC6CC(C)(O)C(OC(C)=O)C(C)O6)C(O)C(C)O4)C(O)C(C)O3)[C@H]([C@H](OC)C(=O)[C@@H](O)[C@@H](C)O)C5)OC(C)C2OC(C)=O)OC1C (some centres unmarked) [Chromomycin] | FRET ratio increases as a function of drug concentration
Mitramycin | FRET ratio increases as a function of drug concentration

Same assay, conditions: flexible sensor, no Mg

Molecule | FRET ratio as a function of drug concentration, absence of Mg
COC1C(O)CC(OC2CC(Oc3cc4cc5c(c(O)c4c(O)c3C)C(=O)[C@@H](OC3CC(OC4CC(OC6CC(C)(O)C(OC(C)=O)C(C)O6)C(O)C(C)O4)C(O)C(C)O3)[C@H]([C@H](OC)C(=O)[C@@H](O)[C@@H](C)O)C5)OC(C)C2OC(C)=O)OC1C (some centres unmarked) [Chromomycin] | no change in the FRET ratio
Mitramycin | no change in the FRET ratio

The molecules below were run on double-stranded oligo probe (DNA) (assay: High-throughput screen of a compound library with the linear oligo probe (FRET ratio, 384 well plate)). Details: not given.
Assay type: binding
Description: A library of compounds was mixed with the oligo probe in 384 well plate format. (A) The fluorescence spectra of the probe were recorded on a plate reader as in FIG. 21 and the FRET ratio (Cy5/Cy3 intensity) was calculated. […] (B) A library consisting of 1600 compounds from FDA and internationally approved drugs was screened to detect potential intercalators that can be drug repositioning targets.
The molecular sensors were used in vitro according to the following: 1) The sensors were diluted in a NaCl solution (e.g., in a 50-100 mM NaCl solution) and 0.2% BSA solution to a concentration of 1 μM. This can be adjusted depending on the sensitivity of the fluorescence measurement device. 2) The fluorescence spectrum was measured using a fluorescence spectrophotometer, a plate reader, or any other ad-hoc means. […] 3) The molecular species was added to be characterized for DNA binding properties or to be tested for intercalating or groove binding ability. The appropriate sensor is used (e.g., a linear or flexible molecular sensor). The fluorescence spectrum was measured again using the same methods and settings. 4) The FRET ratio was compared for both the sensor alone and sensor plus tested molecule. The FRET ratio is calculated by dividing the peak intensity of the acceptor fluorescence by that of the donor fluorescence.

Molecule | FRET ratio
CCCCCCc1ccc(O)cc1O.Nc1c2ccccc2nc2ccccc12 [ACRISORCIN] | 0.2919
CCOP(=S)(OCC)Oc1nc(Cl)c(Cl)cc1Cl [CHLORPYRIFOS] | 0.5126
CC(=O)Oc1cccc2c1C(=O)c1c(OC(C)=O)cc(C(=O)O)cc1C2=O [DIACERIN] | 0.7
CC(=O)Oc1cc2c(cc1OC(C)=O)[C@@H]1c3ccc(OC(C)=O)c(OC(C)=O)c3OC[C@]1(OC(C)=O)C2 [HAEMATOXYLIN PENTAACETATE] | 0.6134
COc1ccc2c3c([nH]c2c1)C(C)=NCC3 [HARMALINE] | 0.646
COc1ccc2c(c1)[nH]c1c(C)nccc12 [HARMINE] | 0.754
Cc1nccc2c1[nH]c1cc(O)ccc12 [HARMOL HYDROCHLORIDE] | 0.3867
CC(C)(C#N)O[C@@H]1O[C@H](CO)[C@@H](O)[C@H](O)[C@H]1O [LINAMARIN] | 0.4228
CC[C@@H](CO)NC(=O)[C@@H]1C=C2c3cccc4c3c(cn4C)C[C@H]2N(C)C1 [METHYSERGIDE MALEATE] | 0.8993
COc1ccc2nc3cc(Cl)ccc3c(Nc3cc(CN4CCCC4)c(O)c(CN4CCCC4)c3)c2n1.O=P(O)(O)O.O=P(O)(O)O.O=P(O)(O)O.O=P(O)(O)O [PYRONARIDINE TETRAPHOSPHATE] | 0.3325
CC[C@@]1(O)C[C@H](O)c2c(cc3c(c2O)C(=O)c2c(O)ccc(O)c2C3=O)[C@H]1C(=O)OC [RUTILANTINONE] | 0.6761
O=c1n(Cl)c(=O)n(Cl)c(=O)n1Cl [SYMCLOSENE] | 0.1489
MODALINE SULFATE | 0.1375

Same assay, conditions: linear oligo probe, 384 well plate, Cy5/Cy3 intensity; library peak ˜1.1, a small ratio indicates intercalation

Molecule | FRET ratio
CC(C)NCC(O)COc1cccc2ccccc12.Cl (racemic) [PROPRANOLOL HYDROCHLORIDE (+/−)] | 0.9132
COc1ccc(-c2cc(=O)c3ccccc3o2)cc1 [4′-METHOXYFLAVONE] | 0.543
CC(=O)c1ccc2c(c1)N(CCCN(C)C)c1ccccc1S2 [ACEPROMAZINE MALEATE] | 0.8037
COc1cc2nc(N(C)CCCNC(=O)C3CCCO3)nc(N)c2cc1OC (centres unmarked) [ALFUZOSIN HYDROCHLORIDE] | 0.6784
O=C1c2c(O)cccc2C([C@@H]2O[C@H](CO)[C@@H](O)[C@H](O)[C@H]2O)c2cc(CO)cc(O)c21 (some centres unmarked) [ALOIN] | 0.7719
N=C(N)NC(=O)c1nc(Cl)c(N)nc1N [AMILORIDE HYDROCHLORIDE] | 0.7057
Nc1c2ccccc2nc2ccccc12 [AMINACRINE] | 0.2941
CCN(CC)Cc1cc(Nc2ccnc3cc(Cl)ccc23)ccc1O [AMODIAQUINE DIHYDROCHLORIDE] | 0.8333
CN1CCc2cccc3c2[C@H]1Cc1ccc(O)c(O)c1-3 [APOMORPHINE HYDROCHLORIDE] | 0.9228
NC(CO)C(=O)NNCc1ccc(O)c(O)c1O (centres unmarked) [BENSERAZIDE HYDROCHLORIDE] | 0.7832
COc1ccc2cc3[n+](cc2c1OC)CCc1cc2c(cc1-3)OCO2 [BERBERINE CHLORIDE] | 0.4262
Cc1ccc(S(=O)(=O)[N-]Cl)cc1.[Na+] [CHLORAMINE-T] | 0.3985
COc1cc(OC)c2c(=O)cc(-c3ccccc3)oc2c1 [CHRYSIN DIMETHYL ETHER] | 0.8385
N.N.[Cl][Pt][Cl] [CISPLATIN] | 0.6996
Cc1cc(N)c2ccccc2[n+]1CCCCCCCCCC[n+]1c(C)cc(N)c2ccccc21 [DEQUALINIUM CHLORIDE] | 0.6126
COc1cc2nc(N3CCN(C(=O)C4COc5ccccc5O4)CC3)nc(N)c2cc1OC (centres unmarked) [DOXAZOSIN MESYLATE] | 0.8089
CCOc1cc(C=O)ccc1O [ETHYL VANILLIN] | 0.9212
CO/N=C1\CN(c2nc3c(cc2F)c(=O)c(C(=O)O)cn3C2CC2)CC1CN (centres unmarked) [GEMIFLOXACIN MESYLATE] | 0.9051
N=C(N)N/N=C/c1c(Cl)cccc1Cl [GUANABENZ ACETATE] | 0.7731
N=C(N)N [GUANIDINE HYDROCHLORIDE] | 0.451
CCN(CC)CCNc1ccc(CO)c2sc3ccccc3c(=O)c12 [HYCANTHONE] | 0.4566

Molecule | FRET ratio
CC[C@H]1CN2CC[C@H]1C[C@@H]2[C@@H](O)c1ccnc2ccc(OC)cc12 [HYDROQUINIDINE] | 0.7512
COc1c2occc2c(OC)c2c(=O)cc(C)oc12 [KHELLIN] | 0.7494
COc1c2occc2cc2ccc(=O)oc12 [METHOXSALEN] | 0.9338
NC(N)=NC(=O)c1nc(Cl)c(N2CCCCCC2)nc1N [N,N-HEXAMETHYLENEAMILORIDE] | 0.38
c1ccc2c(CC3=NCCN3)cccc2c1 [NAPHAZOLINE HYDROCHLORIDE] | 0.8789
CCCCC(CC)COC(=O)C(C#N)=C(c1ccccc1)c1ccccc1 (centres unmarked) [OCTOCRYLENE] | 0.9187
Cc1c(-c2cnccn2)ssc1=S [OLTIPRAZ] | 0.7447
COc1cc2c(cc1OC)-c1cc3ccc(OC)c(OC)c3c[n+]1CC2 [PALMATINE CHLORIDE] | 0.5141
OCCN1CCN(CCCN2c3ccccc3Sc3ccc(Cl)cc32)CC1 [PERPHENAZINE] | 0.9495
CC1=CC(=O)c2c(O)cccc2C1=O [PLUMBAGIN] | 0.9364
COc1cc2nc(N3CCN(C(=O)c4ccco4)CC3)nc(N)c2cc1OC [PRAZOSIN HYDROCHLORIDE] | 0.818
COc1cc(NC(C)CCCN)c2ncccc2c1 (centres unmarked) [PRIMAQUINE PHOSPHATE] | 0.8618
CC(=O)[C@H]1CC[C@H]2[C@@H]3CCC4=CC(=O)CC[C@]4(C)[C@H]3CC[C@]12C [PROGESTERONE] | 0.9184
CCN(CC)CCCC(C)Nc1c2ccc(Cl)cc2nc2ccc(OC)cc12 (centres unmarked) [QUINACRINE HYDROCHLORIDE] | 0.2743
C=C[C@H]1C[N@@]2CC[C@H]1C[C@@H]2[C@@H](O)c1ccnc2ccc(OC)cc12 [QUINIDINE GLUCONATE] | 0.9333
C[C@@H]1O[C@@H](O[C@H]2[C@H](Oc3cc(O)c4c(=O)cc(-c5ccc(O)cc5)oc4c3)O[C@H](CO)[C@@H](O)[C@@H]2O)[C@H](O)[C@H](O)[C@H]1O [RHOIFOLIN] | 0.6817
Nc1c2c(nc3ccccc13)CCCC2 [TACRINE HYDROCHLORIDE] | 0.6067
CCN(CC)CCOc1ccc2c(c1)C(=O)c1cc(OCCN(CC)CC)ccc1-2 [TILORONE] | 0.443
CN1[C@@H]2CC[C@H]1C[C@@H](OC(=O)c1c[nH]c3ccccc13)C2 [TROPISETRON HYDROCHLORIDE] | 0.7228
LUPEOL ACETATE | 0.38
